# Data as given in paper PMC11772392, “Host Plant Odour and Sex Pheromone are Integral to Mate Finding in Codling Moth” (Journal of Chemical Ecology, 2025).
# Biological target: T1, CpomOR3 (Cydia pomonella, UniProt H9A5M3)
# T1 construct: gene OR3; full-length ORF cloned in pUASg-HA.attB, expressed in Drosophila melanogaster ab3A olfactory neurons (pOr22a-Gal4ki empty neuron line); with Odorant receptor coreceptor (Drosophila melanogaster, endogenous in the ab3A neuron)
# T1 sequence (H9A5M3 1-426): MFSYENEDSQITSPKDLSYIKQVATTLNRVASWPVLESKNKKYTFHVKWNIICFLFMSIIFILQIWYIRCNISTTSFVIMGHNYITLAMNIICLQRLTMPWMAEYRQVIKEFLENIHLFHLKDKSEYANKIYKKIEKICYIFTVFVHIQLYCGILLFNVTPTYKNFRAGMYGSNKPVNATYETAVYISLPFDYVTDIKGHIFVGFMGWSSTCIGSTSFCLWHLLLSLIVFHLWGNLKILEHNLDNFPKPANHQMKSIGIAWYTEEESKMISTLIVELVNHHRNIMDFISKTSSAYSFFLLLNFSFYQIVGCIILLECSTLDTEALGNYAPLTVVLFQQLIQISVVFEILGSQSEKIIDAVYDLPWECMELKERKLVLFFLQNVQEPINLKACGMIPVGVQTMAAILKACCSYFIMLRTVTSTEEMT
# T1 sequence (Q9VNB5 1-486 partner): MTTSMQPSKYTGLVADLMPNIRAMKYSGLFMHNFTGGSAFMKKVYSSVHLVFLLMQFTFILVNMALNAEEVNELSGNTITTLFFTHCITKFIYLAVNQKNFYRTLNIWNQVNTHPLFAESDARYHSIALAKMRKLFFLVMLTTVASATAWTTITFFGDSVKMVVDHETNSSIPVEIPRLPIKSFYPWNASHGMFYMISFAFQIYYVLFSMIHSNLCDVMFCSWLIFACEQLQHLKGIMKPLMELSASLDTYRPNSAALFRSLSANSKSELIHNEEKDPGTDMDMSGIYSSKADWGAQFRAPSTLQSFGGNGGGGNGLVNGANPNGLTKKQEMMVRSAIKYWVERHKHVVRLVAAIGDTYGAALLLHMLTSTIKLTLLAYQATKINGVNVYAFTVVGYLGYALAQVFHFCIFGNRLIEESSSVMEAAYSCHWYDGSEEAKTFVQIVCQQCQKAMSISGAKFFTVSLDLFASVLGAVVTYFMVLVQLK
# Test: GC-coupled single sensillum recording (GC-SSR), ab3A neuron
# Type: cell-based
# Conditions: pear ester eluting from apple fruit headspace on GC, dose not stated, n = 3; activation; synthetic pear ester dose response (1, 10, 25 ng) not given
# From the text: GC-coupled single sensillum recording (GC-SSR), ab3A neuron on CpomOR3 | antennal sensilla expressing CpomOR3 began to respond at the retention time of pear ester
smiles,measurement,value
"CCCCC/C=C\C=C\C(=O)OCC [pear ester, ethyl (E,Z)-2,4-decadienoate]",spike frequency response,12.9 ± 4.1 spikes/s
